Reference: ChEMBL document CHEMBL5154681, “Small Amphiphilic Peptides: Activity Against a Broad Range of Drug-Resistant Bacteria and Structural Insight into Membranolytic Properties” (J Med Chem, 2022)
Values after ≈ are worked out from the molar mass of the structure shown. Active and inactive are the calls of the source. No cut-off for these calls is given here. Square brackets hold non-standard residues; d marks the D form. Peptide text beside a SMILES is read from it. Dip = N[C@H](C(=O)O)C(c1ccccc1)c1ccccc1; 2Nal = N[C@@H](Cc1ccc2ccccc2c1)C(=O)O

Key:
Pseudomonas aeruginosa [1] = experiment: Antibacterial activity against Pseudomonas aeruginosa ATCC 27883 incubated for 24 hrs by microtiter plate method; type: functional; conditions: Pseudomonas aeruginosa, ATCC 27883, read-out: MIC
Pseudomonas aeruginosa [2] = experiment: Antibacterial activity against Pseudomonas aeruginosa ATCC 10145 incubated for 24 hrs by microtiter plate method; type: functional
Staphylococcus aureus [3] = experiment: Antibacterial activity against methicillin resistant Staphylococcus aureus ATCC BAA-1556 incubated for 24 hrs by microtiter plate method; type: functional; conditions: Staphylococcus aureus, ATCC BAA-1556, 24 h, read-out: MIC
Escherichia coli [4] = experiment: Bactericidal activity against Escherichia coli ATCC BAA-2452 assessed as reduction of bacterial growth at MIC by counting formed colonies; type: functional, organism-based; conditions: time <= 4.0 hrs, TDE = time-dependent effect
Klebsiella pneumoniae = experiment: Antibacterial activity against Klebsiella pneumoniae ATCC 13883 […] incubated for 24 hrs by microtiter plate method; type: functional
Staphylococcus aureus [5] = experiment: Bactericidal activity against methicillin resistant Staphylococcus aureus ATCC BAA-1556 assessed as reduction of bacterial growth at MIC by counting formed colonies; type: functional, organism-based; conditions: time <= 4.0 hrs, TDE = time-dependent effect
Streptococcus pneumoniae [6] = experiment: Antibacterial activity against […] ATCC 49619 incubated for 24 hrs by microtiter plate method; type: functional
Cell membrane = experiment: Membrano-lytic effect in cytoplasmic membrane of Escherichia coli ATCC BAA-2452 assessed as disruption by measuring propidium iodide fluorescence at MIC incubated for 1 hr by FACscan flow cytometer analysis
Enterococcus faecalis [7] = experiment: Antibacterial activity against Enterococcus faecalis ATCC 29212 incubated for 24 hrs by microtiter plate method; type: functional
Lipid bilayer = experiment: Membrano-lytic effect in mammalian membrane mimic DOPC/cholesterol (10:1) large unilamellar vesicles assessed as calcein leakage measured at 50 microg/ml measured upto 100 mins for every 10 mins by multimode microplate reader assay; type: cell membranes; conditions: dose 50.0 µg/ml
[8] = Cytotoxicity against HEK293 assessed as cell viability at 150 ug/ml incubated for 24 hrs by microplate spectrophotometer analysis method relative to control; type: toxicity, cell-based; conditions: human, HEK293 cells, at 150 µg/mL, read-out: Activity
Staphylococcus aureus [9] = experiment: Antibacterial activity against methicillin resistant Staphylococcus aureus ATCC BAA-1556 after 24 hrs in presence of 4.5 mM of KCl by microtiter plate method; type: functional
[10] = Selectivity ratio of MIC for antibacterial activity against Klebsiella pneumoniae ATCC 13883 to MIC for antibacterial activity against carbapenem-resistant Klebsiella pneumoniae ATCC BAA-2470; type: functional
Staphylococcus aureus [11] = experiment: Antibacterial activity against methicillin resistant Staphylococcus aureus ATCC BAA-1556 after 24 hrs in presence of 1 mM of by microtiter plate method; type: functional
Escherichia coli [12] = experiment: Antibacterial activity against Escherichia coli ATCC 25922 after 24 hrs in presence of 150 mM NaCl by microtiter plate method; type: functional
Staphylococcus aureus [13] = experiment: Antibacterial activity against methicillin-resistant Staphylococcus aureus ATCC BAA-1556 assessed as membrane atrophy at 4 times of MIC incubated for 30 mins by FE-SEM analysis; type: functional, organism-based
Escherichia coli [14] = experiment: Antibacterial activity against Escherichia coli ATCC 25922 after 24 hrs in presence of 4.5 mM of KCl at by microtiter plate method; type: functional
Escherichia coli [15] = experiment: Bactericidal activity against Escherichia coli ATCC BAA-2452 assessed as reduction of bacterial growth at 4 times MIC by counting formed colonies; type: functional, organism-based; conditions: time <= 4.0 hrs, TDE = time-dependent effect
[16] = Cytotoxicity against HEK293 assessed as cell viability at 50 ug/ml incubated for 24 hrs by microplate spectrophotometer analysis method relative to control; type: toxicity, cell-based; conditions: human, HEK293 cells, at 50 µg/mL, read-out: Activity
Staphylococcus aureus [17] = experiment: Antibacterial activity against methicillin resistant Staphylococcus aureus ATCC BAA-1556 after 24 hrs in presence of fetal bovine serum by microtiter plate method; type: functional
Bacillus cereus = experiment: Antibacterial activity against Bacillus cereus ATCC 13061 incubated for 24 hrs by microtiter plate method; type: functional
Pseudomonas aeruginosa [18] = experiment: Antibacterial activity against imipenem resistant Pseudomonas aeruginosa ATCC BAA-1744 incubated for 24 hrs by microtiter plate method; type: functional
[19] = Proteolytic stability in human plasma at 100 uM incubated for 24 hrs by Q-TOF LC/MS analysis relative to control; type: ADME, cell-free; conditions: read-out: Stability
Staphylococcus aureus [20] = experiment: Bactericidal activity against methicillin resistant Staphylococcus aureus ATCC BAA-1556 assessed as time required for complete reduction of bacterial growth at 4 times MIC by counting formed colonies; type: functional
[21] = Cytotoxicity against human MRC-5 assessed as cell viability at 150 ug/ml incubated for 24 hrs by microplate spectrophotometer analysis method relative to control; type: toxicity, cell-based, MRC5; conditions: MRC-5 cells, at 150 µg/mL, read-out: Activity
Escherichia coli [22] = experiment: Antibacterial activity against Escherichia coli ATCC 25922 assessed as reduction in microbial growth after 24 hrs in presence of 6 mM of NH4Cl at by microtiter plate method; type: functional
Escherichia coli [23] = experiment: Antibacterial activity against Escherichia coli ATCC 25922 after 24 hrs in presence of 2 mM CaCl2 at by microtiter plate method; type: functional
Enterococcus faecium = experiment: Antibacterial activity against vancomycin-resistant Enterococcus faecium ATCC 700221 incubated for 24 hrs by microtiter plate method; type: functional
[24] = Cytotoxicity against human MRC5 assessed as cell viability at 50 ug/ml incubated for 24 hrs by microplate spectrophotometer analysis method relative to control; type: toxicity, cell-based; conditions: MRC5 cells, at 50 µg/mL, read-out: Activity
Acinetobacter baumannii = experiment: Antibacterial activity against ciprofloxacin resistance Acinetobacter baumannii ATCC BAA1605 incubated for 24 hrs by microtiter plate method; type: functional
HepaRG = experiment: Cytotoxicity against human HPRGC10 assessed as cell viability at 50 ug/ml incubated for 24 hrs by microplate spectrophotometer analysis method relative to control; type: functional; conditions: read-out: Activity
Bacillus subtilis = experiment: Antibacterial activity against Bacillus subtilis ATCC 6633 incubated for 24 hrs by microtiter plate method; type: functional
[25] = Hemolytic activity in human RBC assessed as hemolysis incubated for 2 hrs by spectrophotometer analysis; type: toxicity, cell-based, Erythrocyte; conditions: human red blood cells (erythrocytes)
Enterococcus faecalis [26] = experiment: Antibacterial activity against vancomycin-resistant Enterococcus faecalis ATCC 51575 incubated for 24 hrs by microtiter plate method; type: functional
Staphylococcus aureus [27] = experiment: Bactericidal activity against methicillin resistant Staphylococcus aureus ATCC BAA-1556 assessed as reduction of bacterial growth at 4 times MIC by counting formed colonies; type: functional, organism-based; conditions: time <= 4.0 hrs, TDE = time-dependent effect
Staphylococcus aureus [28] = experiment: Antibacterial activity against methicillin resistant Staphylococcus aureus ATCC BAA-1556 incubated for 24 hrs; type: functional
Staphylococcus aureus [29] = experiment: Antibacterial activity against methicillin resistant Staphylococcus aureus ATCC BAA-1556 after 24 hrs in presence of 2 mM of CaCl2 by microtiter plate method; type: functional
Streptococcus pneumoniae [30] = experiment: Antibacterial activity against multidrug resistant […] ATCC 700677 incubated for 24 hrs by microtiter plate method; type: functional
Staphylococcus aureus [31] = experiment: Antibacterial activity against methicillin-resistant Staphylococcus aureus ATCC BAA-1556 assessed as loss of membrane fluid at 4 times of MIC incubated for 30 mins by FE-SEM analysis; type: functional, organism-based
Escherichia coli [32] = experiment: Antibacterial activity against Escherichia coli ATCC BAA-2452 assessed as membrane atrophy at 4 times of MIC incubated for 30 mins by FE-SEM analysis; type: functional, organism-based

N=C(N)NCCC[C@@H]1NC(=O)[C@H](CCCNC(=N)N)NC(=O)[C@H](CCCNC(=N)N)NC(=O)[C@H](C(c2ccccc2)c2ccccc2)NC(=O)[C@H](C(c2ccccc2)c2ccccc2)NC(=O)[C@H](C(c2ccccc2)c2ccccc2)NC(=O)[C@H](CCCNC(=N)N)NC1=O (cyclo(RRRR[Dip][Dip][Dip]))
MIC (Pseudomonas aeruginosa [1]): 12.5 µg/mL (≈ 9.66 µM) | MIC (Pseudomonas aeruginosa [2]): 25 µg/mL (≈ 19.3 µM) | MIC (Staphylococcus aureus [3]): 3.1 µg/mL (≈ 2.39 µM) | Activity (Escherichia coli [4]): Tde | MIC (Klebsiella pneumoniae): 50 µg/mL (≈ 38.6 µM) | Activity (Staphylococcus aureus [5]): Tde | MIC (Streptococcus pneumoniae [6]): 25 µg/mL (≈ 19.3 µM) | Activity (Cell membrane): 50% | MIC (Enterococcus faecalis [7]): 3.1 µg/mL (≈ 2.39 µM) | Activity (Lipid bilayer): 18% | viability at 24 h, 150 ug/ml [8]: 58% | MIC (Staphylococcus aureus [9]): 3.1 µg/mL | Ratio [10]: 2 | MIC (Staphylococcus aureus [11]): 6.2 µg/mL | MIC (Escherichia coli [12]): 12.5 µg/mL | Activity (Staphylococcus aureus [13]): Active | MIC (Escherichia coli [14]): 12.5 µg/mL | Activity (Escherichia coli [15]): Tde | viability at 24 h, 50 ug/ml [16]: 80% | MIC (Staphylococcus aureus [17]): 6.2 µg/mL | MIC (Bacillus cereus): 3.1 µg/mL (≈ 2.39 µM) | MIC (Pseudomonas aeruginosa [18]): 12.5 µg/mL (≈ 9.66 µM) | remaining at 24 h, 100 µM [19]: 65% | Activity (Staphylococcus aureus [20]): Active | viability at 24 h, 150 ug/ml [21]: 36% | MIC (Escherichia coli [22]): 12.5 µg/mL | MIC (Escherichia coli [23]): 12.5 µg/mL | MIC (Enterococcus faecium): 3.1 µg/mL (≈ 2.39 µM) | viability at 24 h, 50 ug/ml [24]: 93% | MIC (Acinetobacter baumannii): 12.5 µg/mL (≈ 9.66 µM) | viability at 50 µg/mL (HepaRG): 93% | MIC (Bacillus subtilis): 1.5 µg/mL (≈ 1.16 µM) | HC50 at 2 h [25]: 70 µg/mL | MIC (Enterococcus faecalis [26]): 6.2 µg/mL (≈ 4.79 µM) | Activity (Staphylococcus aureus [27]): Tde | MBC (Staphylococcus aureus [28]): 6.2 µg/mL (≈ 4.79 µM) | MIC (Staphylococcus aureus [29]): 3.1 µg/mL | MIC (Streptococcus pneumoniae [30]): 25 µg/mL (≈ 19.3 µM) | Activity (Staphylococcus aureus [31]): Active | Activity (Escherichia coli [32]): Active

N=C(N)NCCC[C@@H]1NC(=O)[C@H](CCCNC(=N)N)NC(=O)[C@H](CCCNC(=N)N)NC(=O)[C@H](Cc2ccc3ccccc3c2)NC(=O)[C@H](Cc2ccc3ccccc3c2)NC(=O)[C@H](Cc2ccc3ccccc3c2)NC(=O)[C@H](CCCNC(=N)N)NC1=O (cyclo(RRRR[2Nal][2Nal][2Nal]))
MIC (Pseudomonas aeruginosa [1]): 12.5 µg/mL (≈ 10.3 µM) | MIC (Pseudomonas aeruginosa [2]): 25 µg/mL (≈ 20.6 µM) | MIC (Staphylococcus aureus [3]): 3.1 µg/mL (≈ 2.55 µM) | Activity (Escherichia coli [4]): Tde | MIC (Klebsiella pneumoniae): 50 µg/mL (≈ 41.1 µM) | Activity (Staphylococcus aureus [5]): Tde | MIC (Streptococcus pneumoniae [6]): 25 µg/mL (≈ 20.6 µM) | Activity (Cell membrane): 50% | MIC (Enterococcus faecalis [7]): 3.1 µg/mL (≈ 2.55 µM) | Activity (Lipid bilayer): 14% | viability at 24 h, 150 ug/ml [8]: 58% | MIC (Staphylococcus aureus [9]): 3.1 µg/mL | Ratio [10]: 2 | MIC (Staphylococcus aureus [11]): 3.1 µg/mL | MIC (Escherichia coli [12]): 25 µg/mL | Activity (Staphylococcus aureus [13]): Active | MIC (Escherichia coli [14]): 25 µg/mL | Activity (Escherichia coli [15]): Tde | viability at 24 h, 50 ug/ml [16]: 80% | MIC (Staphylococcus aureus [17]): 6.2 µg/mL | MIC (Bacillus cereus): 3.1 µg/mL (≈ 2.55 µM) | MIC (Pseudomonas aeruginosa [18]): 12.5 µg/mL (≈ 10.3 µM) | remaining at 24 h, 100 µM [19]: 60% | Activity (Staphylococcus aureus [20]): Active | viability at 24 h, 150 ug/ml [21]: 36% | MIC (Escherichia coli [22]): 25 µg/mL | MIC (Escherichia coli [23]): 25 µg/mL | MIC (Enterococcus faecium): 3.1 µg/mL (≈ 2.55 µM) | viability at 24 h, 50 ug/ml [24]: 93% | MIC (Acinetobacter baumannii): 12.5 µg/mL (≈ 10.3 µM) | viability at 50 µg/mL (HepaRG): 93% | MIC (Bacillus subtilis): 1.5 µg/mL (≈ 1.23 µM) | HC50 at 2 h [25]: 80 µg/mL | MIC (Enterococcus faecalis [26]): 3.1 µg/mL (≈ 2.55 µM) | Activity (Staphylococcus aureus [27]): Tde | MBC (Staphylococcus aureus [28]): 6.2 µg/mL (≈ 5.1 µM) | MIC (Staphylococcus aureus [29]): 3.1 µg/mL | MIC (Streptococcus pneumoniae [30]): 12.5 µg/mL (≈ 10.3 µM) | Activity (Staphylococcus aureus [31]): Active | Activity (Escherichia coli [32]): Active
